Patent US8709398B2, “Probiotic Bifidobacterium strains” (Alimentary Health Limited, priority 2007, dated 2014)

Test system: B. longum AH1205
Experiment: Antibiotic sensitivity, minimum inhibitory concentration (MIC)
Assay type: cell-based, Bifidobacterium longum
Conditions: against B. longum AH1205

CCC[C@@H]1C[C@@H](C(=O)N[C@@H]([C@H]2O[C@H](SC)[C@H](O)[C@@H](O)[C@H]2O)[C@H](C)Cl)N(C)C1 [clindamycin]
minimum inhibitory concentration (MIC): 0.032

Cc1ncc([N+](=O)[O-])n1CCO [metronidazole]
minimum inhibitory concentration (MIC): > 256

CN[C@H](CC(C)C)C(=O)N[C@H]1C(=O)N[C@@H](CC(N)=O)C(=O)N[C@H]2C(=O)N[C@H]3C(=O)N[C@H](C(=O)N[C@H](C(=O)O)c4cc(O)cc(O)c4-c4cc3ccc4O)[C@H](O)c3ccc(c(Cl)c3)Oc3cc2cc(c3O[C@@H]2O[C@H](CO)[C@@H](O)[C@H](O)[C@H]2O[C@H]2C[C@](C)(N)[C@H](O)[C@H](C)O2)Oc2ccc(cc2Cl)[C@H]1O [vancomycin]
minimum inhibitory concentration (MIC): 0.75
